Series [1] concerns huCART19 cells co-cultured with Nalm-6. The series is described as follows: CART proliferation in 4 day co-culture with Nalm-6 in the presence of RAD001. It is filed as cell-based, human. On the procedure: The effect of low doses of RAD001 on CAR T cell proliferation in vitro was evaluated by co-culturing CART-expressing cells with target cells in the presence of different concentrations of RAD001.
A humanized, anti-human CD19 CAR (huCART19) lentiviral transfer vector was used to produce the genomic material packaged into VSVg pseudotyped lentiviral particles. The amino acid and nucleotide sequence of the humanized anti-human CD19 CAR (huCART19) is CAR 1, ID 104875 described in PCT publication, WO2014/153270, filed Mar. 15, 2014, and is designated SEQ ID NOs. 85 and 31 therein.
Lentiviral transfer vector DNA is mixed with the three packaging components VSVg env, gag/pol and rev in combination with lipofectamine reagent to transfect Lenti-X 293T cells. Medium is changed after 24 h and 30 h thereafter, the virus-containing media is collected, filtered and stored at −80° C. CARTs are generated by transduction of fresh or frozen naïve T cells obtained by negative magnetic selection of healthy donor blood or leukopak. T cells are activated by incubation with anti-CD3/anti-CD28 beads for 24 h, after which viral supernatant or concentrated virus (MOI=2 or 10, respectively) is added to the cultures. The modified T cells are allowed to expand for about 10 days. The percentage of cells transduced (expressing the CARs on the cell surface) and the level of CAR expression (relative fluorescence intensity, Geo Mean) are determined by flow cytometric analysis between days 7 and 9. The combination of slowing growth rate and T cell size approaching ˜350 fL determines the state for T cells to be cryopreserved for later analysis.
To evaluate the functionality of CARTs, the T cells are thawed and counted, and viability is assessed by Cellometer. The number of CAR-positive cells in each culture is normalized using non-transduced T cells (UTD). […]
For measuring the proliferation of CARTs, T cells are cultured with target cells at a ratio of 1:1. […] The number of T cells is assessed by flow cytometry using counting beads as reference.

In series [2] the test system is huCAR19 CAR T cells. The series is described as follows: In vivo proliferation of humanized CD19 CAR T cells with and without RAD001 dosing. The arrangement: species or system NSG mice. On the procedure:
This example evaluates the ability of huCAR19 cells to proliferate in vivo with different concentrations of RAD001.
(§1) Tumor implantation: NALM6-luc cells were grown and expanded in vitro in RPMI supplemented with 10% heat inactivated fetal bovine serum. The cells were then transferred to a 15 ml conical tube and washed twice with cold sterile PBS. NALM6-luc cells were then counted and resuspended at a concentration of 10×10^6 cells per milliliter of PBS. The cells were placed on ice and immediately (within one hour) implanted in the mice. NALM6-luc cells were injected intravenously via the tail vein in a 100 μl volume, for a total of 1×10^6 cells per mouse.
CAR T cell dosing: Mice were administered 5×10^6 CAR T cells 7 days after tumor implantation. Cells were partially thawed in a 37 degree Celsius water bath and then completely thawed by the addition of 1 ml of cold sterile PBS to the tube containing the cells. The thawed cells were transferred to a 15 ml falcon tube and adjusted to a final volume of 10 mls with PBS. The cells were washed twice at 1000 rpm for 10 minutes each time and then counted on a hemocytometer. T cells were then resuspended at a concentration of 50×10^6 CAR T cells per ml of cold PBS and kept on ice until the mice were dosed. The mice were injected intravenously via the tail vein with 100 μl of the CAR T cells for a dose of 5×10^6 CAR T cells per mouse. Eight mice per group were treated either with 100 μl of PBS alone (PBS), or humanized CD19 CAR T cells.
(§2) RAD001 dosing: A concentrated micro-emulsion of 50 mg equal to 1 mg RAD001 was formulated and then resuspended in D5W (dextrose 5% in water) at the time of dosing. Mice were orally dosed daily (via oral gavage) with 200 μl of the desired doses of RAD001.
Based on these doses, huCAR19 CAR T cells were dosed with and without RAD001 to determine the proliferative ability of these cells. The highest dose used was 3 mg/kg based on the levels of RAD001 in the blood 24 hours after dosing. As the concentration of RAD001 was above 10 nM 24 hours after the final dose of RAD001, several lower doses of RAD001 were used in the in vivo study with CAR T cells. The CAR T cells were dosed IV one day prior to the start of the daily oral RAD001 dosing. Mice were monitored via FACS for T cell expansion.

Series [3] can be described thus: Pharmacokinetic analysis of RAD001 in blood of NSG mice with NALM6 tumors. It is filed as in vivo. On the procedure:
as §2
PK analysis: Mice were dosed daily with RAD001 starting 7 days post tumor implantation. Dosing groups were as follows: 0.3 mg/kg, 1 mg/kg, 3 mg/kg, and 10 mg/kg. Mice were bled on days 0 and 14 following the first and last dose of RAD001, at the following time points for PK analysis: 15 minutes, 30 minutes, 1 hour, 2 hours, 4 hours, 8 hours, 12 hours, and 24 hours.

The test system of series [4] is NALM6-luc tumors. The series is described as follows: NALM6-luc tumor growth with daily RAD001 dosing. It is filed as in vivo, NSG mice. Conditions: daily oral dosing of RAD001 alone, 0.3, 1, 3 and 10 mg/kg; FIG. 7. On the procedure: NALM6-luc cells: The NALM6 human acute lymphoblastic leukemia (ALL) cell line was developed from the peripheral blood of a patient with relapsed ALL. The cells were then tagged with firefly luciferase. These suspension cells grow in RPMI supplemented with 10% heat inactivated fetal bovine serum.
Mice: 6 week old NSG (NOD.Cg-Prkdc^scidIl2rg^tm1Wjl/SzJ) mice were received from the Jackson Laboratory (stock number 005557).
as §1, §2
PK analysis: Mice were dosed daily with RAD001 starting 7 days post tumor implantation. Dosing groups were as follows: 0.3 mg/kg, 1 mg/kg, 3 mg/kg, and 10 mg/kg. […]

Regarding `CO[C@H]1C[C@@H]2CC[C@@H](C)[C@@](O)(O2)C(=O)C(=O)N2CCCC[C@H]2C(=O)O[C@H]([C@H](C)C[C@@H]2CC[C@@H](OCCO)[C@H](OC)C2)CC(=O)[C@H](C)/C=C(\C)[C@@H](O)[C@@H](OC)C(=O)[C@H](C)C[C@H](C)/C=C/C=C/C=C/1C` [RAD001, (1R,9S,12S,15R,16E,18R,19R,21R,23S,24E,26E,28E,30S,32S,35R)-1,18-dihydroxy-12-{(1R)-2-[(1S,3R,4R)-4-(2-hydroxyethoxy)-3-methoxycyclohexyl]-1-methylethyl}-19,30-dimethoxy-15,17,21,23,29,35-hexamethyl-11,36-dioxa-4-aza-tricyclo[30.3.1.04,9]hexatriaconta-16,24,26,28-tetraene-2,3,10,14,20-pentaone], the “proliferation of huCART19 compared with no RAD001” value in series [1] (0.0032 and 0.016 nM RAD001, 4 day co-culture with Nalm-6) is on record as “higher than observed without the addition of RAD001”. The “RAD001 concentration at which huCART19 cells expanded” value in series [1] (4 day co-culture with Nalm-6 at 1:1, to a lesser extent at higher concentrations, FIG. 6) is listed as “less than 0.016 nM”. Besides, in series [1] (low doses of RAD001, co-culture with Nalm-6, 4 days, FIG. 6 legend), the “proliferation of CAR-expressing, transduced T cells” value was “enhanced”. Further, the “CAR T cell proliferation relative to normal level of huCAR19 proliferation” value in series [2] (RAD001 0.003 mg/kg daily, FIG. 9 legend) was “enhancement in CAR T cell proliferation”. Further, in series [2] (lowest doses of RAD001, daily oral, huCAR19 CAR T cells IV one day before, FIGS. 9A and 9B), the “proliferation of the CAR T cells in vivo” value is given as “enhanced proliferation”. The “enhanced proliferation, CD4+ CAR T cells compared with CD8+ CAR T cells” value in series [2] (lowest doses of RAD001, FIG. 9A) was “more evident and prolonged”. Further, the “proliferation of CD8+ CAR T cells” value in series [2] (lowest doses of RAD001, FIG. 9B) is on record as “enhanced proliferation can be seen at early time points”. In addition, in series [3] (NSG, mouse, blood, lowest dose tested (0.3 mg/kg), oral, day 0 and day 14 PK, read-out: RAD001 concentrations in the blood 24 hours after dosing), the concentration at 24 h is > 10 nM. In series [3] (blood, NSG mice with NALM6 tumors), the “concentration of RAD001 24 hours after the final dose” value is reported as “above 10 nM”. The “stability in the blood of tumor bearing mice” value in series [3] (daily oral RAD001, FIGS. 8A and 8B) was “fairly stable”. For the same compound, in series [4], the “growth of NALM6-luc tumors” value is listed as “did not have an impact”.

These data come from patent US12186278B2, “Mesothelin chimeric antigen receptor (CAR) and antibody against PD-L1 inhibitor for combined use in anticancer therapy” (Novartis AG, priority 2015, dated 2025).
